Where two headings read alike, the source gives them in different places. Marks after values point to notes of the source that are not given here.
How the values were obtained:
[1] = system: acetylcholinesterase (AChE); settings: for Ach E: p.o. + AlCl3 (100 mg/kg, i.p.), brain homogenate, Mean ± SEM, n = 6
Procedure: At the conclusion of the study, the rats were euthanized by decapitation, and their brains were swiftly removed and placed in ice-cold saline solution. The cortex and hippocampus were carefully isolated and submerged in an ice-cold water container to halt enzymatic reactions. The levels of acetylcholinesterase (AChE) and butyrylcholinesterase (BChE) in the cortex and hippocampus regions of the brain were determined using Ellman's method from 1961. Approximately 100 mg of the isolated brain sections were weighed and homogenized in phosphate buffer (0.1 M, pH 8.0). To 0.4 mL of the homogenate, the following components were added: 2.6 mL of phosphate buffer (0.1 M, pH 8.0), 100 μL of 10 mM 5,5-dithio-bis-(2-nitrobenzoic acid) (DTNB), and 20 μL of acetylthiocholine iodide (AChI) solution (0.075 M). The mixture was thoroughly mixed. The absorbance was then measured at 412 nm for a duration of 5 minutes.
n=6, All the values were expressed in Mean±SEM (n=6). The statistical analysis was carried out using one way ANOVA.

Fibrinogen = test: Inflammatory marker fibrinogen (ELISA), AlCl3 Alzheimer's model; format: in vivo, rat; settings: for Fibrinogen: p.o. + AlCl3 (100 mg/kg, i.p.), Mean ± SEM, n = 6
Source text: The inflammatory markers Fibrinogen, IL-1β were estimated using ELISA kit (Krishgen Biosystems, India).

substantia nigra = test: Brain histopathology of substantia nigra, reserpine Parkinson's model; format: in vivo, rat
Source text: The brain histopathology was done for all the experimental groups. The brain tissue was fixed in 10% buffered neutral formalin solution. The tissue was embedded in paraffin, sectioned at […] stained with hematoxylin and eosin (H&E). The sections were examined under light microscope to study the architecture of the brain tissue, and then photomicrographs were taken (Fischer A H, Jacobson K A, Rose J, Zeller R. Hematoxylin and eosin staining of tissue and cell sections. CSH Protoc. 2008:1;pdb.prot4986. doi: 10.1101/pdb.prot4986).
The induction of Parkinson's disease and measurement of other parameters were done as per the reported protocol (Santos et al., Cognitive, motor and tyrosine hydroxylase temporal impairment in a model of parkinsonism induced by reserpine. Behav Brain Res. 2013; 253:68-77 and Shishehbore et al. A novel kinetic spectrophotometric method for the determination of dopamine in biological and pharmaceutical samples. J Chem. 2013; 2013:1-6). Induction of Parkinson's disease was done by administering Resperine, which inhibits the monoamine vesicular transporters, thus decreasing the levels of monoamine neurotransmitters in the brain. Following pretreatment for 14 days with Gingerenone A, the rat groups received subcutaneous injections of reserpine (4 mg/kg) for the final five days of the treatment regimen. Resperine (5 mg) was dissolved in 1 ml of 1% acetic acid and then diluted tenfold with distilled water to achieve a final concentration of 500 μg/ml. The normal control group received saline with 1% acetic acid for 14 days, administered from day 10 to day 14. Thirty minutes following the administration of reserpine on the 14th day, behavioural assessments were conducted using the Open Field test, Y Maze, and Catalepsy tests to evaluate changes. […] Upon completion of the study, brains were harvested for biochemical analyses and histopathological studies. The experimental group is depicted in table 10.

Alzheimer's disease [2] = test: Morris water maze (MWM) test in rats with AlCl3-induced Alzheimer's disease; format: in vivo, rat; settings: for Escape Latency Time: p.o. + AlCl3 (100 mg/kg, i.p.), MWM at 17th day, Mean ± SEM, n = 6
Procedure: Morris water maze (MWM)—This test was performed as per protocol established by Ishola et al., Protective role of Spondiasmombin leaf and Cola acuminata seed extracts against scopolamine-induced cognitive dysfunction. Alexandria J Med. 2018; 54(1):27-39. MWM is a round water tank “diameter: 110 cm and height: 60 cm” consisting of a white surface and that is filled using opaque water (Temp. 26±2° C.) to a distance (depth) of 30 cm. The MWM tank circle is divided into 4 equal quadrants [North Quadrant 1, East Quadrant 2, West Quadrant 3, and South Quadrant 4]. Further, it consists of a 10 cm diameter platform in a constant position. Index of memory improvement is measured by the Escape Latency Time (ELT)—which is the time the animal takes to find the platform.
The MWM plays an important role in the testing of learning and memory in rodent models of Alzheimer's Disease. It is used to test hippocampal-dependent learning, including acquisition of spatial memory and long-term spatial memory (Bromley-Brits et al., Morris water maze test for learning and memory deficits in Alzheimer's disease model mice, J Vis Exp., 2011 Jul. 20:(53):2920). In this study, learning was impaired in the Alzheimer's group.

β-amyloid (1-42) = β-amyloid (1-42) level in plasma (ELISA), AlCl3 Alzheimer's model; format: in vivo, rat; settings: for β-amyloid: p.o. + AlCl3 (100 mg/kg, i.p.), plasma, Mean ± SEM, n = 6
Source text: The levels of Tau, β-amyloid (1-42) and Apolipoprotein E were estimated. using ELISA kit (Krishgen Biosystems, India). All the protein biomarkers of AD were elevated in the AD control group.

Alzheimer's disease [3] = test: Novel object recognition (NOR) test in rats with AlCl3-induced Alzheimer's disease; format: in vivo, rat; settings: for % Recognition Index: p.o. + AlCl3 (100 mg/kg, i.p.), NOR at 15th day, Mean ± SEM, n = 6
Procedure: Novel object recognition (NOR)—Novel object recognition (NOR)—This test was performed as per reported protocol (Antunes M, Biala G. The novel object recognition memory: neurobiology, test procedure, and its modifications. Cognit. Process. 2012:13, 93-110). During the retrieval phase, the animal was allowed to explore the field for 10 min. The hippocampal functions were assessed through the recognition indices, which were measured according to the time spent by the animals to explore the familiar and new objects.
The test is a relatively fast and efficient means for testing learning and memory in an animal model. The test relies on only three sessions: one habituation session, one training session, and one test session and relies on rodents' natural proclivity for exploring novelty. This is a relatively low-stress, efficient test for memory in an animal model, and is appropriate for the detection of neuropsychological changes after the administration of test drugs (Lupetow L, Novel Object Recognition Test for the Investigation of Learning and Memory in Mice, J Vis Exp. 2017; (126): 55718).

COc1cc(CC/C=C/C(=O)CCc2ccc(O)c(OC)c2)ccc1O [Gingerenone A]
Ach E ([1]; 5 mg/kg): 11.76 ± 0.93 10^−6 /mol/g of tissue
Ach E ([1]; 10 mg/kg): 8.77 ± 0.49** 10^−6 /mol/g of tissue
Ach E ([1]; 20 mg/kg): 6.87 ± 0.34** 10^−6 /mol/g of tissue
Acetyl cholinesterase (in words) ([1]; AlCl3 model, Table 5): significantly inhibited Acetyl cholinesterase
Fibrinogen (Fibrinogen; 5 mg/kg): 22.80 ± 0.738 ng/mL
Fibrinogen (Fibrinogen; 10 mg/kg): 19.05 ± 0.232 ng/mL
Fibrinogen (Fibrinogen; 20 mg/kg): 16.65 ± 0.431 ng/mL
fibrinogen (in words) (Fibrinogen; AlCl3 model, Table 9): significantly reduced
histopathology of substantia nigra (substantia nigra; 5 mg/kg, FIG. 12): both normal [FIG. 12A—Arrow] and degenerative neuronal cells having dark nucleus with mild basophilic cytoplasm [FIG. 12B—Arrow] and focal reactive microgliosis. Scant inflammation was noted at places. The neuropils had focal vacuoles
histopathology of substantia nigra (substantia nigra; 10 mg/kg, FIG. 13): both normal [FIG. 13A—Arrow] and degenerative neuronal cells having variable darkly stained nucleus [FIG. 13B—Arrow] with mild basophilic cytoplasm and scant inflammation
histopathology of substantia nigra (substantia nigra; 20 mg/kg, FIG. 14): both normal [FIG. 14A—Arrow] and degenerative neuronal cells having variable darkly stained nucleus [14B—Arrow] with mild basophilic cytoplasm and scant inflammation
Escape Latency Time (Alzheimer's disease [2]; 5 mg/kg): 34.47 ± 3.87 s
Escape Latency Time (Alzheimer's disease [2]; 10 mg/kg): 27.73 ± 2.18 s
Escape Latency Time (Alzheimer's disease [2]; 20 mg/kg): 27.82 ± 2.63 s
learning and memory in MWM (in words) (Alzheimer's disease [2]; AlCl3 model, Table 4): significantly improved learning and memory
β-amyloid (β-amyloid (1-42); 5 mg/kg): 10.74 ± 0.035 pg/mL
β-amyloid (β-amyloid (1-42); 10 mg/kg): 8.04 ± 0.023 pg/mL
β-amyloid (β-amyloid (1-42); 20 mg/kg): 7.88 ± 0.065 pg/mL
levels of β-amyloid (in words) (β-amyloid (1-42); AlCl3 model, Table 7): significantly reduced
% Recognition Index (Alzheimer's disease [3]; 5 mg/kg): 56.23 ± 2.35%
% Recognition Index (Alzheimer's disease [3]; 10 mg/kg): 65.54 ± 2.78 %
% Recognition Index (Alzheimer's disease [3]; 20 mg/kg): 66.53 ± 3.20 %
recognition index (in words) (Alzheimer's disease [3]; AlCl3 model, Table 2): effectively improved the scores

From patent US20260325464A1, “COMPOSITIONS FOR MODULATING THE EXPRESSION OF AQUAPORINS IN NEURODEGENERATIVE DISORDERS” (priority 2023, published 2026)
